Reference: PubChem BioAssay AID1919672
Results filed as inconclusive are left out.

Target: Excitatory amino acid transporter 2 (Homo sapiens) (UniProt P43004)
Assay: wild-type SLC1A2 aspartate uptake modulators, dose response, HEK293 overexpressing cells, iAspSnFR biosensor, flow cytometry (AID 1919672)
Settings: HEK293 SLC1A2-OE

Excitatory amino acid transporter 2 (Homo sapiens), sequence (P43004 whole entry, looked up): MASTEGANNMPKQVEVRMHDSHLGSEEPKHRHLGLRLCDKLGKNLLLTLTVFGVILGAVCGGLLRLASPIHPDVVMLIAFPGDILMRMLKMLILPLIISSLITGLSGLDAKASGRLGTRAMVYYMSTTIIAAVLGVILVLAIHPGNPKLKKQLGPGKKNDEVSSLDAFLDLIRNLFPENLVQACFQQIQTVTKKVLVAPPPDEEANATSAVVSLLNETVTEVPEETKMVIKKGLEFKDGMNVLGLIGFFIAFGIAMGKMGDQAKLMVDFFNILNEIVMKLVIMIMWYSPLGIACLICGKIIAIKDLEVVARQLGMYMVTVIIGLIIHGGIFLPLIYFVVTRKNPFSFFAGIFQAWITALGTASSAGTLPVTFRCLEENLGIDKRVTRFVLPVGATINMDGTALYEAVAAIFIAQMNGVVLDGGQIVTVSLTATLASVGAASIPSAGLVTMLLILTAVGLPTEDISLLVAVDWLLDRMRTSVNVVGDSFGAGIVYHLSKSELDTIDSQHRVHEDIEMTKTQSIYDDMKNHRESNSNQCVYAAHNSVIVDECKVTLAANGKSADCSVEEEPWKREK

## N[C@@H](CC(=O)O)C(=O)O
  EC50: 11 µM
